According to patent publication US8470780B2, “Methods and compositions related to targeting wounds, regenerating tissue, and tumors” (Sanford-Burnham Medical Research Institute, priority 2006, dated 2013):
Bridges are numbered along the chain shown (N, C = ends). Where no end group is shown, it is not given here.

What was measured:
mitochondrial membranes = conditions: concentration of 10 μM; cited from earlier work
tendon and skin wounds = assay: Tissue distribution of fluorescein-labeled peptides after intravenous injection; format: in vivo, mice and rats; conditions: FITC conjugates; for fluorescent signal in the wounds: 4 and 8 hours after injection
Source text: Two types of injuries were used with patellar tendons: For phage screening in rats, patellar tendons were exposed through small skin incisions placed on the lateral side of the joint so that the skin wound and tendon wound were not in direct contact with each other. Six longitudinal, full-length incisions were made into the tendon. Full-thickness incision wounds, 1.5 cm in length, were made in skin on the back of the animal. The skin wounds were left uncovered without a dressing. For quantification of phage homing and peptide injections, two size 11 surgical scalpels were placed side-by-side and the central third of the patellar tendon was removed analogous to the graft used in anterior cruciate ligament reconstruction. Achilles tendons were wounded by making four longitudinal, full-length incisions into the tendon Skin wounds were 8 mm circular, full-thickness excision wounds, made to the skin with a biopsy punch. None of the procedures prevented the animals from bearing weight and moving immediately after the operation and without a noticeable […].
Peptides were synthesized with an automated peptide synthesizer by using standard solid-phase fluorenylmethoxycarbonyl chemistry. During synthesis, the peptides were labeled with fluorescein with an amino-hexanoic acid spacer. Each individual fluorescein-conjugated peptide was injected intravenously into the tail vein of rats or mice with wounds. The peptides were allowed to circulate for different periods of time, followed by heart perfusion. Tissues were embedded into OCT (Tissue-Tek) and processed for microscopy.
Frozen tissue sections were fixed in acetone for 10 min and incubated with 0.5% blocking reagent for 1 hour (NEN Life Sciences, Boston, Mass.). Tissue sections were incubated with the primary antibody overnight at 4° C. The following monoclonal (mAbs) and polyclonal antibodies (pAbs) were used: rabbit anti-T7-phage affinity-purified pAb (1:100), rat anti-mouse CD31 mAb (1:200; BD Pharmingen) and rabbit anti-FITC pAb (1:200, Invitrogen, Carlsbad, Calif.). The primary antibodies were detected with labeled secondary antibodies, and each staining experiment included sections stained with species-matched immunoglobulins as negative controls. The sections were washed several times with PBS, mounted in Vectashield Mounting Medium with DAPI (Vector Laboratories) and visualized under an inverted fluorescent or light microscope.

CHO-K cells [1] = assay: Internalization of fluorescein-labeled peptides by CHO-K cells; format: cell-based, Chinese hamster; conditions: for fluorescence and localization in CHO-K cells by confocal microscopy: FITC-conjugated peptides 10 μM, 4 hours; for accumulation in CHO-K cells: comparison of CHO-K and pgsA-745 cells
Procedure: (§1) To study peptide internalization, CHO-K cells or HUVEC seeded on plastic coverslips were incubated with 10 μM fluorescein-conjugated peptides for 30 min to 72 hours, washed 3 times with PBS, and fixed with 4% paraformaldehyde for 20 min at room temperature. After several washes with PBS, the nuclei were visualized by staining with DAPI, and the slides were mounted with ProLong Gold antifade reagent (Invitrogen, Carlsbad, Calif.). The images were acquired using Olympus IX81 inverted and Olympus Fluoview FV1000 confocal microscopes. Z-stack images were taken by confocal microscope every 1 μm through the cells.

[2] = tested on: human umbilical vein endothelial cells (HUVECs); assay: Internalization of peptides by HUVECs; format: cell-based; conditions: 10 μM, 24 h
Procedure: as §1

[3] = tested on: MDA-MB-235 tumor xenografts; assay: Homing of fluorescein-conjugated peptides to tumor xenografts; format: in vivo, mice; conditions: intravenous, tumor collected 4 hours later; for homing to tumors and extravasation: fluorescence
Procedure: Fluorescein-conjugated peptides CAR, control peptide CAR2, CRK and control peptide KAREC were intravenously injected into mice with MDA-MB-235 tumor xenografts. Tumor tissue was collected 4 hours later and examined for the presence of the peptides. Blood vessels were stained with CD-31 antibody and the nuclei were stained with DAPI.
Fluorescein-conjugated peptides CAR, control peptide CAR2, CRK and control peptide KAREC were intravenously injected into mice with MDA-MB-235 tumor xenografts. Tumor tissue was collected 4 hours later and examined for the presence of the peptides. Adjacent tissue section were stained for blood vessels (CD-31), while the FITC-labeled peptide was first detected with rabbit anti-FITC followed by biotin-conjugated anti-rabbit IgG to confirm the source of fluorescent signal to be from the FITC-labeled peptide. The sections were then stained with hematoxylin-eosin.

CHO-K cells [4] = assay: FACS analysis of peptide binding to CHO-K cells; format: cell-based, Chinese hamster; conditions: for peptide binding to CHO-K cells: 5 μM peptide
Procedure: (§2) Peptide binding to cells was studied essentially as described above for phage. Peptides were tested at 5 μM concentration, with or without 5×10^9 phage. After incubation on ice for 30 min, the cells were washed and resuspended with PBS containing 2 μg/ml of propidium iodide (PI, Invitrogen, Carlsbad, Calif.) and analyzed using a FACScan flow cytometer (BD, San Jose, Calif.).

pgsA-745 cells [5] = assay: Internalization of peptides by pgsA-745 cells; format: cell-based, Chinese hamster; conditions: comparison of CHO-K and pgsA-745 cells
pgsA-745 cells [6] = assay: FACS analysis of peptide binding to pgsA-745 cells; format: cell-based, Chinese hamster; conditions: 5 μM peptide
Procedure: as §2

**Q.** With “D(KLAKLAK)2 (KLAKLAKKLAKLAKKLAKKLAKAAKKAA) [antimicrobial peptide which promotes disruption of mitochondrial membranes]” as the substance, how does the mitochondrial swelling (mitochondrial membranes) read?
**A.** marked mitochondrial swelling

**Q.** What does the source list for “CRKDKC (not fully specified (N-terminus); cysteine pairing not given here; also: FITC conjugate, site not given here) [tested as fluorescein (FITC) conjugate]”?
**A.** fluorescent signal in non-tumor tissues (liver, kidney, lung and spleen) (tendon and skin wounds): did not differ from that of the fluorescein-labeled CAR2 or KAREC peptides; fluorescent signal in the wounds (tendon and skin wounds): strong fluorescent signal in the wounds; fluorescence and localization in CHO-K cells by confocal microscopy (CHO-K cells [1]): no detectable fluorescence; binding and internalization by CHO-K cells (CHO-K cells [1]; fluorescein-labeled peptide): bound to the cells, but was not detectably internalized; binding and internalization by HUVECs [2]: binds to the cells, but does not internalize; homing detected with anti-FITC antibody [3]: home to hypervascular regions surrounding the tumors and to tumor tissue; homing to tumors and extravasation [3]: home to tumors and extravasate to tumor tissue

**Q.** Which results are given for CARSTKATC [CAR2]?
**A.** fluorescent signal in the wounds (tendon and skin wounds): no accumulated fluorescence; peptide binding to CHO-K cells (CHO-K cells [4]): bound only weakly; fluorescence and localization in CHO-K cells by confocal microscopy (CHO-K cells [1]): no detectable fluorescence; binding and internalization by CHO-K cells (CHO-K cells [1]; fluorescein-labeled peptide): no binding or internalization

**Q.** With CGKRK [reference compound] as the substance, how does the “effect of unlabeled competitor on uptake of fluorescein-labeled CAR peptide by CHO-K cells” value (CHO-K cells [1]; 10-molar excess of unlabeled peptide) read?
**A.** did not detectably affect the uptake

**Q.** What about the “fluorescence and localization in CHO-K cells by confocal microscopy” value (CHO-K cells [1]) of the same substance?
**A.** overlap with the nuclei and the cytosol

**Q.** What about the “accumulation in CHO-K cells” value (CHO-K cells [1]) of the same substance?
**A.** accumulated in the cytosol and nuclei

**Q.** And the “accumulation in pgsA-745 cells” value (pgsA-745 cells [5])?
**A.** accumulated in the cytosol and nuclei

**Q.** Which results are given for “KAREC [unrelated 5 amino-acid control peptide, reference compound]”?
**A.** fluorescent signal in the wounds (tendon and skin wounds): no detectable signal in the wounds; peptide binding to CHO-K cells (CHO-K cells [4]): no binding; peptide binding to pgsA-745 cells (pgsA-745 cells [6]): no binding; fluorescence and localization in CHO-K cells by confocal microscopy (CHO-K cells [1]): no detectable fluorescence

**Q.** Which “fluorescent signal in non-tumor tissues (liver, kidney, lung and spleen)” value (tendon and skin wounds) does the source give for “CARSKNKDC (disulfide 1-9 (inferred); not fully specified (N-terminus); also: FITC conjugate, site not given here) [tested as fluorescein (FITC) conjugate]” here?
**A.** did not differ from that of the fluorescein-labeled CAR2 or KAREC peptides

**Q.** And the “fluorescent signal in the wounds” value (tendon and skin wounds)?
**A.** strong fluorescent signal in the wounds

**Q.** What about the “peptide binding to CHO-K cells” value (CHO-K cells [4]) of the same substance?
**A.** strong binding

**Q.** What about the “inhibition of labeled CAR peptide binding to CHO-K cells by competitor” value (CHO-K cells [4]; excess unlabeled peptide or phage) of the same substance?
**A.** inhibited the binding in a dose-dependent manner

**Q.** And the “fluorescence and localization in CHO-K cells by confocal microscopy” value (CHO-K cells [1])?
**A.** strong green fluorescence that mostly overlaps with nuclear DAPI staining

**Q.** And the “accumulation in CHO-K cells” value (CHO-K cells [1])?
**A.** only binds to and is internalized by the CHO-K cells

**Q.** And the “time to accumulation inside the cells, overlapping with the nucleus” value (CHO-K cells [1]; fluorescein-labeled peptide)?
**A.** ≤ 30 min

**Q.** And the “binding and internalization by HUVECs” value [2]?
**A.** binds to cells and appears to enter the cells co-localizing with the nuclei

**Q.** And the “accumulation in pgsA-745 cells” value (pgsA-745 cells [5])?
**A.** only binds to and is internalized by the CHO-K cells

**Q.** And the “homing detected with anti-FITC antibody” value [3]?
**A.** home to hypervascular regions surrounding the tumors and to tumor tissue

**Q.** And the “homing to tumors and extravasation” value [3]?
**A.** home to tumors and extravasate to tumor tissue
